Reference: patent US7252822B2, “Methods for treating post-surgical pain by administering an anti-nerve growth factor antagonist” (Rinat Neuroscience Corp., priority 2002, dated 2007)

Experiments:
Male Sprague Dawley rats = assay: Post-surgical pain model (hind paw incision): resting pain, cumulative pain score; type: in vivo; settings: rat
Description: We used a pain model that mimics post surgical pain to assess the efficacy of treatment with anti-NGF antibody 911 (a mouse monoclonal antibody; see Hongo, et al., Hybridoma 19:215-227 (2000). Each experiment involved 16 animals (n=8 per group). The anti-NGF antibody was injected intra peritoneal (i.p.) at various concentratiosn per experiment (35 or 7 milligrams per kilogram) 15 hours pre-incision. The control group received no antibody but was injected i.p. with a saline solution.
Animals. Male Sprague Dawley rats weighting between 220-240 grams were purchased from Harlan (San Diego) and acclimated to the animal facility for one week prior to surgery.
Surgery. The surgery was based on the procedure described by Brennan, et al. Pain 64:493-501 (1996). Animals were anesthetized with a 2% isoflurane in air mixture that was maintained during surgery via a nose cone. The plantar surface of the right hind paw was prepared with a povidone-iodine pad, and a 1-cm central longitudinal incision was made through skin and fascia, starting 0.5 cm from the edge of the heel and extending toward the toes. Measurements were made with a ruler with the foot held in a flexed position. The plantaris muscle was elevated using curved forceps and incised longitudinally. The muscle was incised through its full depth, between the origin and insertion. Bleeding was controlled throughout surgery by pressure applied through a gauze pad. The wound was closed with two mattress sutures (5-0 ethilon black monofilament). These sutures were knotted 5-6 times, with the first knot loosely tied. The wound site was swabbed with bacitracin solution. Animals were allowed to recover and rest in clean cages for two hours or more before behavioral testing began.
Evaluating resting pain. A cumulative pain score was used to assess pain related to weight bearing. Animals were placed on a plastic mesh (grid: 8 mm^2) in clear plastic cages that were elevated on a platform (h: 18″) allowing inspection of the underside of their paws. After a 20 minute acclimation period, weight bearing was assessed on a scale of 0 to 2. A score of 0 was given if the paw was blanched or pressed against the mesh, indicating full weight bearing. A score of 1 was given if the paw was favored with the skin just touching the mesh, with no blanching or indentation of the skin. A score of 2 was given if the paw was held completely off the mesh. Flinching the paw was considered a 2 if the rat was still at rest. […] The sum of 6 scores (0-12) obtained during ½ hour was used to assess pain in the incised foot. Frequency of scores of 2 was also calculated and used to assess the incidence of severe pain or total guarding of the paw by the animal. Each animal was tested 24 hours before surgery (baseline), and 2 h, 24 h, 48 h, and 72 h postoperatively. […]

Male Sprague-Dawley rats = assay: Wound healing after dorsal skin incision: proportion of intact wounds; type: in vivo; settings: rat, 5 mg/kg daily for five days intramuscularly, positive control; p<0.0005 vs saline or 911; FIG. 8
From the text: Male Sprague-Dawley rats weighing 250-350 grams were purchased from Harlan (Wisconsin) were brought into the facility and acclimated for at least one week. Animals were anaesthetized with isoflurane and the dorsal surface (back) was shaved and cleaned with povidone iodine followed by an alcohol pad. A 2.5 cm incision through the skin was made on the midline between the scapulae. Bleeding was controlled with pressure with a gauze pad. The wound was closed with four single 4-0 ethilon sutures and the animals were allowed to recover. Animals were then divided into three groups: one group receiving a single does of mouse monoclonal anti-NGF antibody 911 at the time of surgery (1 mg/kg, i.p.); one group receiving Ketorolac (5 mg/kg daily for five days starting the day of surgery, intramuscularly (IMO) as a positive control; and a saline treated control group (negative control). Ketoralac is known to inhibit wound healing. Haws et al. (1996) Ann Plast Surg. 37(2):147-51; Gerstenfeld et al. (2003) J Orthop Res. 21(4):670-5.
The area of the incision was examined and photographed daily starting at day one post surgery. […] Incisions were scored as “intact” if the entire incision remained closed, and “failed” if some or all of the incision re-opened. Results were expressed as the proportion of intact wounds (i.e., the number of intact wounds divided by the total number of animals scored).

human NGF = target: T1, human NGF (human, UniProt P01138 122-239, limits assumed); assay: binding affinity; method not given
T1 construct: also called hNGF; human nerve growth factor
T1 sequence (P01138 122-239 limits assumed): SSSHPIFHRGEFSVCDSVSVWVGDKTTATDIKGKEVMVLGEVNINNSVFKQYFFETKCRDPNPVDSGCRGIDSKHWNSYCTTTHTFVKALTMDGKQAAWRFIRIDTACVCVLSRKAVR

COC(=O)[C@@]1(O)C[C@H]2O[C@]1(C)n1c3ccccc3c3c4c(c5c6ccccc6n2c5c31)C(=O)NC4 [K252a]
cumulative resting pain score three hours after dosing (Male Sprague Dawley rats; in vivo, ip, 4 mg/kg): significantly reduced resting pain | resting pain reduction compared with anti-NGF antibody in similar experiments (Male Sprague Dawley rats; in vivo, ip, 4 mg/kg): reduced resting pain to the same extent that treatment with anti-NGF antibody did

O=C(c1ccccc1)c1ccc2n1CCC2C(=O)O (stereo not drawn) [ketorolac]
wound healing (proportion of intact wounds) (Male Sprague-Dawley rats): significantly inhibited

B1: humanized anti-NGF antibody E3 (antibody, V domains shown)
VH: QVQLQESGPGLVKPSETLSLTCTVSGFSLIGYDLNWIRQPPGKGLEWIGIIWGDGTTDYNSAVKSRVTISKDTSKNQFSLKLSSVTAADTAVYYCARGGYWYATSYYFDYWGQGTLVTVS
VL: DIQMTQSPSSLSASVGDRVTITCRASQSISNNLNWYQQKPGKAPKLLIYYTSRFHSGVPSRFSGSGSGTDFTFTISSLQPEDIATYYCQQEHTLPYTFGQGTKLEIKR
Kd (human NGF): ~70 pM

B2: E3: humanized mouse anti-NGF monoclonal antibody; human IgG2a constant region with A330P331 to S330S331, kappa light chain, variable regions SEQ ID NO:1 and 2 (antibody, V domains shown)
VH: B1 VH
VL: DIQMTQSPSSLSASVGDRVTITCRASQSISNNLNWYQQKPGKAPKLLIYYTSRFHSGVPSRFSGSGSGTDFTFTISSLQPEDIATYYCQQEHTLPYTFGQGTKLEIKRT
resting pain (cumulative pain score) 24 hours after surgery (Male Sprague Dawley rats; 0.02 mg/kg to 1 mg/kg i.p. 15 hours pre-incision, p<0.05 vs saline, FIG. 4): significantly reduced resting pain | resting pain (cumulative pain score) 24 hours after surgery (Male Sprague Dawley rats; 0.5 mg/kg i.v. two hours after incision, vs saline, FIG. 5): significantly (p<0.05) reduced resting pain
